Experimental data published in patent US20070292384A1, “Water soluble micelle-forming and biodegradable cyclotriphosphazene-taxol conjugate anticancer agent and preparation method thereof” (priority 2006, published 2007).
Read-outs that look alike come from different tables or passages of the source.

Assays:
[1] = system: MCF-7 breast cancer cell line; assay: In vitro cytotoxicity, MCF-7; type: cell-based; details: average ± SD, n = 3-4
Procedure: (§1) In order to evaluate the anticancer activity of the cyclotriphosphazene-taxol conjugates of the present invention, in vitro cytotoxicity of the representative compound of Example 1 was assayed both in saline and in pure water according to a standard testing procedure (Y. J. Jun, et al., J. Inorg. Biochem. (2005) 99:1593-1601), and the test results are shown in Table 1 below.

[2] = system: SK-OV3 ovarian cancer cell line; assay: In vitro cytotoxicity, SK-OV3; type: cell-based; details: average ± SD, n = 3-4
Procedure: as §1

[3] = system: A-431; assay: In vitro cytotoxicity, A-431; type: cell-based; details: average ± SD, n = 3-4
Procedure: as §1

[4] = system: MDA-MB-231 breast cancer cell line; assay: In vitro cytotoxicity, MDA-MB-231; type: cell-based; details: average ± SD, n = 3-4
Procedure: as §1

[5] = Blood metabolism study in rats (HPLC of blood samples); type: in vivo, male Sprague-Dawley rats; details: rat
Procedure: To a group consisting of 4 male Sprague-Dawley rats (270-300 g) was administered the compound of Example 2 dissolved in a PBS solution at a concentration of 6.67 mg/ml by intravenous infusion with a dosage of 5 mg/kg for 3 minutes. After the drug administration, blood (100 μl) samples were taken from each rat for 48 hours at 0, 0.08, 0.5, 1, 2, 3, 4, 6, 8, 12, 24, 36 and 48 hours post injection, and the samples were analyzed with HPLC, and the results are presented in Table 2 below.

[6] = DLS measurement of micelle formation and micelle size; type: physicochemical; details: 0.1 to 0.5% in distilled water, Malvern Zetasizer (Nano-ZS)
Procedure: It was determined by a DLS (dynamic light scattering) method whether the cyclotriphosphazene-taxol conjugates prepared according to the present invention are aggregated in aqueous solution through interaction of the hydrophobic oligopeptide groups, so as to form micelles, according to the following procedure: A size distribution of an aqueous solution, in which 0.1 to 0.5% of the cyclotriphosphazene-taxol conjugate prepared in Example 1 was dissolved in distilled water, was measured by a DLS method using Malvern Zetasizer (Nano-ZS).

[7] = intravenous infusion 5 mg/kg for 3 minutes, average

Compound: CC(=O)O[C@H]1C(=O)[C@@]2(C)[C@H]([C@H](OC(=O)c3ccccc3)[C@]3(O)C[C@H](OC(=O)[C@H](O)[C@@H](NC(=O)c4ccccc4)c4ccccc4)C(C)=C1C3(C)C)[C@]1(OC(C)=O)CO[C@@H]1C[C@@H]2O [Taxol (free), Taxol]
- IC50 ([1]; Homo sapiens, MCF7, free taxol): 39 ± 4.9 nM
- IC50 ([2]; Homo sapiens, SK-OV-3, free taxol): 65.8 ± 0.5 nM
- IC50 ([3]; Homo sapiens, A-431, free taxol): 25.1 ± 8.9 nM
- IC50 ([4]; Homo sapiens, MDA-MB-231, free taxol): 47.1 ± 12.2 nM
- AUC(0-t) ([5]; male, Sprague-Dawley, blood, intravenous infusion 5 mg/kg for 3 minutes, average, sampling to 48 hours): 1970 ng·h/mL
- AUC(0-inf) ([5]; male, Sprague-Dawley, blood, intravenous infusion 5 mg/kg for 3 minutes, average, read-out: AUCINF (measurement)): 2290 ng·h/mL
- C0 ([5]; male, Sprague-Dawley, blood, intravenous infusion 5 mg/kg for 3 minutes, average, read-out: C0): 2700 ng/mL
- AUClast/AUCINF [5, 7]: 85.9%
- Cl_obs [5, 7]: 556.2 mL/h
- Lambda z [5, 7]: 0.275 h⁻¹
- Vz_obs [5, 7]: 2778.1 mL
- t½_Lambda z [5, 7]: 3.54 h

Compound: [tris(methoxy-polyethyleneglycol550)][tris(glycyllysinemethylester)-mono-2′-succinyltaxol]cyclotriphosphazene [Example 2]
- AUCINF (measurement) [5, 7]: 2.55
- AUClast/AUCINF [5, 7]: 77.1%
- C0 [5, 7]: 1530 ng/mL
- Cl_obs [5, 7]: 513.3 mL/h
- Lambda z [5, 7]: 0.133 h⁻¹
- Vz_obs [5, 7]: 4468.9 mL
- t½_Lambda z [5, 7]: 6.29 h
- AUClast ([5]; intravenous infusion 5 mg/kg for 3 minutes, average, sampling to 48 hours): 1970 ng·h/mL
- in vivo half life relative to free taxol ([5]; intravenous, compared with free taxol not formulated): twice longer

Compound: [tris(methoxy-polyethyleneglycol350)][tris(glycyllysinemethylester)-mono-2′-succinyltaxol]cyclotriphosphazene [Example 1]
- IC50 ([1]; in pure water): 447 ± 138 nM
- IC50 ([1]; in saline solution): 129 ± 37.5 nM
- IC50 ([2]; in pure water): 503 ± 114 nM
- IC50 ([2]; in saline solution): 138 ± 14.3 nM
- IC50 ([3]; in pure water): 380 ± 89.2 nM
- IC50 ([3]; in saline solution): 53.8 ± 13.9 nM
- IC50 ([4]; in pure water): 327 ± 54.5 nM
- IC50 ([4]; in saline solution): 108 ± 10.9 nM
- micelle radius (DLS) [6]: 105 nm
